The subject of one test is HeLa wt cells. The test is described as follows: Immunoblot of LC3-II and SQSTM1 (autophagic flux). It is filed as cell-based. As to conditions: 100 nM, 6 h. The protocol: For SDS PAGE and western blotting, cells were harvested by scraping, pelletized at 150 rcf and 4 °C for 5 min, washed with DPBS and quickly frozen in liquid nitrogen. Cells were lysed in lysis buffer (20 mM Tris–HCl, 150 mM NaCl, 500 µM EDTA, 1% [v/v] Triton X-100, 1 mM Na3VO4, 10 mM NaF, 2.5 mM Na4P2O7, 1X protease inhibitor cocktail [Roche, Basel, Switzerland, #4693132001]) for 30 min on ice and the lysates were cleared by centrifugation at 18,000 rcf and 4 °C for 15 min. Protein concentration was determined by Bradford assay and sample buffer was added (62.5 mM Tris, 8.6% [v/v] glycerol, 2% [w/v] SDS, 33.3 µg/mL bromophenol blue, 1% [v/v] β-mercaptoethanol). […] For CETSA analysis of TPP-TR samples, the protein concentration was determined by Pierce 660 nm Protein Assay and the protein concentration of the 36.5 °C treated sample of each treatment and replicate was used for the other nine samples of the respective sample set to display temperature-dependent total protein aggregation and precipitation. […] After separation by SDS-PAGE, proteins were transferred to PVDF membranes (Merck, Darmstadt, Germany, #IPFL00010), blocked with 5% milk powder in TBST and analyzed using the indicated primary antibodies followed by appropriate IRDye 800- or IRDye 680-conjugated secondary antibodies (LI-COR Biosciences, Lincoln, NE, USA). […]
On the technique in general: A western blot detects proteins with antibodies after separation by electrophoresis.

A further test has as its system HeLa GRASP55 KO cells. The test is described as follows: Secretome analysis by data-independent mass spectrometry. As to conditions: 100 nM, 24 h, serum-free, not apparent in wt. It is filed as cell-based. The protocol: For the preparation of secretomes, 2*10^5 HeLa wt or HeLa GRASP55 KO cells per well were seeded in a 6-well plate (n = 5 replicates for 4 different groups). […] After incubation, the medium was collected, centrifuged at 1,000 × g and 4 °C for 10 min and filtered through a 0.2 µm Acrodisc syringe filter (VWR, Radnor, PA, USA, #514–4131). After adding protease inhibitor cocktail (Roche, Basel, Switzerland, #5,892,791,001), the samples were snap frozen in liquid nitrogen and stored at -80 °C. Proteins were prepared for mass spectrometric analysis by a modified single-pot, solid-phase-enhance sample preparation (SP3) method. […] Finally, the sample was reconstituted in 0.1% trifluoroacetic acid and half of the sample analyzed by mass spectrometry. […]
Only proteins identified with at least two different peptides and 4 valid intensity values (MaxLFQ) in at least one experimental group were considered for further analysis. […] Annotation dependent significant abundance changes of protein groups were analysed using 1D and 2D annotation enrichment and respective differences visualized with split-violin plots with OriginPro 2020b.

With `CCCCCC1=C/C(=C/c2[nH]c(-c3ccc[nH]3)cc2OC)N=C1C` [Prodigiosin, prodigiosin], in the test on HeLa wt cells, the LC3-II level result is listed as “accumulated”. Also, the “starvation-induced degradation of SQSTM1” value with HeLa wt cells (EBSS) was “blocked”. Also, the “abundance of signal peptide (SP) proteins in the secretome” value in the test with HeLa GRASP55 KO cells is “higher abundances”.

(Values after article PMC10552397 (Cell Communication and Signaling : CCS, 2023).)
